Test results published in the supplement of paper PMC11061612.

Key:
Test in all cases: combination Emax (second highest fraction inhibited in the dose matrix, 72 h); higher = more inhibition; extreme values may be limits of the assay
[1] = system: CAL-72 (Osteosarcoma)
Outline: (§1)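 Cell lines grown in DMEM/F12 or RPMI with 10% FBS were plated in 1536-well plates and held 24 hours at 37°C, 5% CO2 before 72 hours of exposure to two-drug dose matrices, with DMSO typically at 0.2%. CellTiter-Glo 2.0 luminescence gave viability, which was converted to inhibition. Vehicle wells were set to 0 and blank wells to 1. Combination Emax is the second-highest inhibition in the matrix, and Bliss excess is the observed combination effect minus the expected EA + EB − EA·EB, where EA and EB are the single-agent effects.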

[2] = system: ESS-1 (Other Solid Carcinomas)
Outline: as §1

[3] = system: YAPC (Pancreatic Carcinoma)
Outline: as §1

[4] = system: HH (T-Cell Non-Hodgkin's Lymphoma)
Outline: as §1

[5] = system: TGBC1TKB (Biliary Tract Carcinoma)
Outline: as §1

[6] = system: MPP-89 (Mesothelioma)
Outline: as §1

[7] = system: CAL-33 (Oral Cavity Carcinoma)
Outline: as §1

[8] = system: WSU-NHL (B-Cell Non-Hodgkin's Lymphoma)
Outline: as §1

[9] = system: NCI-H209 (Small Cell Lung Carcinoma)
Outline: as §1

[10] = system: SAS (Oral Cavity Carcinoma)
Outline: as §1

[11] = system: L-428 (Hodgkin's Lymphoma)
Outline: as §1

[12] = system: SW1573 (Lung Adenocarcinoma)
Outline: as §1

[13] = system: KMRC-20 (Kidney Carcinoma)
Outline: as §1

[14] = system: SW1710 (Bladder Carcinoma)
Outline: as §1

[15] = system: HuH-7 (Hepatocellular Carcinoma)
Outline: as §1

[16] = system: LCLC-97TM1 (Non-Small Cell Lung Carcinoma)
Outline: as §1

[17] = system: BE2-M17 (Neuroblastoma)
Outline: as §1

[18] = system: Hs-746T (Gastric Carcinoma)
Outline: as §1

[19] = system: LNZTA3WT4 (Low Grade Glioma)
Outline: as §1

[20] = system: BPH-1 (Non-Cancerous)
Outline: as §1

| SMILES | combination Emax [1] | combination Emax [2] | combination Emax [3] | combination Emax [4] | combination Emax [5] | combination Emax [6] | combination Emax [7] | combination Emax [8] | combination Emax [9] | combination Emax [10] | combination Emax [11] | combination Emax [12] | combination Emax [13] | combination Emax [14] | combination Emax [15] | combination Emax [16] | combination Emax [17] | combination Emax [18] | combination Emax [19] | combination Emax [20] |
| --- | --- | --- | --- | --- | --- | --- | --- | --- | --- | --- | --- | --- | --- | --- | --- | --- | --- | --- | --- | --- |
| Cc1c2c(nn1C)CSCc1cc(n(C)n1)CSc1cc(c3ccccc3c1)OCCCc1c(C(=O)O)n(C)c3c-2c(Cl)ccc13 [AZD5991] + C1CN(CCC1(C(=O)N[C@@H](CCO)C2=CC=C(C=C2)Cl)N)C3=NC=NC4=C3C=CN4 [Capivasertib] (first compound max 1 µM, 7x7, partner max 3 µM) | 0.415 | 0.366 | 0.149 | 0.928 | 0.292 | 0.268 | 0.347 | 0.9 | 0.36 | 0.189 | 0.155 | 0.231 | 0.223 | 0.256 | 0.208 | 0.32 | 0.966 | 0.337 | 0.237 | 0.469 |
| COc1nnc2ccc(N3CCC(c4ccc(OCCN5CCN(C)C(=O)[C@H]5C)cc4)CC3)nn12 [AZD5153] + Cn1cnc2c(F)c(Nc3ccc(Br)cc3Cl)c(C(=O)NOCCO)cc21 [Selumetinib] (first compound max 1 µM, 7x7, partner max 10 µM) | 0.389 | 0.585 | 0.477 | 0.42 | 0.37 | 0.554 | 0.708 | 0.954 | 0.508 | 0.86 | 0.784 | 0.577 | 0.414 | 0.441 | 0.885 | 0.848 | 0.825 | 0.731 | 0.383 | 0.87 |
| CN(C)CCCOc1ccc(-c2ccc3ncc4c(c3c2)n(C2CCOCC2)c(=O)n4C)cn1 [AZD0156] + C=CCn1c(=O)c2cnc(Nc3ccc(N4CCN(C)CC4)cc3)nc2n1-c1cccc(C(C)(C)O)n1 [AZD1775] (first compound max 1 µM, partner max 1 µM) | 0.778 | 0.973 | 0.251 | 0.442 | 0.134 | 0.522 | 0.643 | 0.948 | 0.84 | 0.548 | 0.824 | 0.268 | 0.596 | 0.337 | 0.262 | 0.828 | 0.57 | 0.491 | 0.783 | 0.457 |
| COc1nnc2ccc(N3CCC(c4ccc(OCCN5CCN(C)C(=O)[C@H]5C)cc4)CC3)nn12 [AZD5153] + CCN(CCO)CCCOc1ccc2c(Nc3cc(CC(=O)Nc4cccc(F)c4)[nH]n3)ncnc2c1 [AZD2811] (first compound max 1 µM, 7x7, partner max 1 µM) | 0.503 | 0.809 | 0.342 | 0.485 | 0.307 | 0.467 | 0.609 | 0.934 | 0.458 | 0.819 | 0.845 | 0.504 | 0.414 | 0.33 | 0.463 | 0.764 | 0.644 | 0.572 | 0.457 | 0.844 |
| Cn1cnc2c(F)c(Nc3ccc(Br)cc3Cl)c(C(=O)NOCCO)cc21 [Selumetinib] + CCN(CCO)CCCOc1ccc2c(Nc3cc(CC(=O)Nc4cccc(F)c4)[nH]n3)ncnc2c1 [AZD2811] (first compound max 10 µM, 7x7, partner max 1 µM) | 0.181 | 0.462 | 0.212 | 0.173 | 0.211 | 0.204 | 0.653 | 0.642 | 0.431 | 0.471 | 0.235 | 0.251 | 0.29 | 0.214 | 0.293 | 0.647 | 0.644 | 0.478 | 0.226 | 0.624 |
| COc1cccc(OCCCN)c1-c1cc(Nc2cnc(C#N)cn2)n[nH]1 [Prexasertib] + Cc1cc2ncnn2cc1Nc1ncc2c(n1)n(C1CCOCC1)c(=O)n2C [AZD7648] (first compound max 1 µM, 7x7, partner max 10 µM) | 0.994 | 1 | 0.585 | 0.65 | 0.483 | 0.734 | 0.816 | 1 | 0.974 | 0.926 | 0.958 | 0.201 | 0.858 | 0.728 | 0.329 | 0.938 | 0.983 | 0.78 | 0.9 | 0.319 |
| CN(C)CCCOc1ccc(-c2ccc3ncc4c(c3c2)n(C2CCOCC2)c(=O)n4C)cn1 [AZD0156] + C[C@@H]1COCCN1C2=NC(=NC(=C2)C3(CC3)[S@](=N)(=O)C)C4=C5C=CNC5=NC=C4 [AZD6738] (first compound max 1 µM, 7x7, partner max 10 µM) | 0.889 | 0.989 | 0.294 | 0.427 | 0.397 | 0.63 | 0.782 | 0.998 | 0.854 | 0.855 | 0.777 | 0.196 | 0.65 | 0.509 | 0.325 | 0.88 | 0.928 | 0.636 | 0.778 | 0.427 |
